Test results: PMC3724809, “Analysis of the Interaction Interfaces of the N-Terminal Domain from Pseudomonas aeruginosa MutL” (PLoS ONE, 2013)

Key:
[1] = target: T1, PaNTD (P. aeruginosa MutL N-terminal domain) (Pseudomonas aeruginosa, UniProt Q9HUL8); experiment: size-exclusion chromatography, nucleotide-induced dimerization; assay type: binding; settings: 5 mM MgCl2, 150 mM KCl, 20 mM Tris-HCl pH 7.9, room temperature
T1 sequence (Q9HUL8 1-339): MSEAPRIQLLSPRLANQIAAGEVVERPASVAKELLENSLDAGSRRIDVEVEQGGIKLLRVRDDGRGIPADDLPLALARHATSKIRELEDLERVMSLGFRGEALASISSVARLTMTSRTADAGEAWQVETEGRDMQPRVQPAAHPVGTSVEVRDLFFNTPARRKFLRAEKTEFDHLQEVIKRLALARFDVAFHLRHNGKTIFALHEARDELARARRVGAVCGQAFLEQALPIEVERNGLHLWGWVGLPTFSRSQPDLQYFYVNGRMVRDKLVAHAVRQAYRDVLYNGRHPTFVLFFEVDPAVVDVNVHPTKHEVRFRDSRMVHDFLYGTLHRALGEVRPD

[2] = target: T2, EcNTD (E. coli MutL N-terminal domain, LN40) (Escherichia coli, UniProt P23367); experiment: DSS chemical cross-linking, nucleotide-induced dimerization, SDS-PAGE; assay type: binding; settings: 1 mM AMPPNP, 5 mM MgCl2, 150 mM KCl, 20 mM HEPES pH 7.4, 4 °C
T2 sequence (P23367 1-342): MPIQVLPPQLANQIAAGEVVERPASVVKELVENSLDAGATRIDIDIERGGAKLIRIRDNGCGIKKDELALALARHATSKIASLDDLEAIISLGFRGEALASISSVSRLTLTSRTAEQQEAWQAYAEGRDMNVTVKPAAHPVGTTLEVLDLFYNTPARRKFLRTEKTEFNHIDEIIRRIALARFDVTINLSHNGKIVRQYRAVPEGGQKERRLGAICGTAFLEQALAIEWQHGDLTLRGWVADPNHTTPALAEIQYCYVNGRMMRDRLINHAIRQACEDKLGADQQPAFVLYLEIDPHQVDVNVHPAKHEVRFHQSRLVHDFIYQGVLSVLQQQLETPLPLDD

[3] = target: the molecule itself; experiment: SEC; Superose 12 10/30, 20 mM Tris-HCl pH 7.9, 150 mM KCl, 5 mM MgCl2, 1 mM DTT, room temperature; 1 mg/ml PaNTD or 2 mg/ml EcNTD (legend: 22 µM) without nucleotide, with ADP or with ATP; calibrated with BSA 45 and 66 kDa

In the case of `Nc1ncnc2c1ncn2[C@@H]1O[C@H](COP(=O)(O)OP(=O)(O)OP(=O)(O)O)[C@@H](O)[C@H]1O` [ATP], the “size-exclusion chromatography, nucleotide-induced dimerization” value [1] is reported as “No major differences were observed among the elution pattern of ADP or ATP bound PaNTD”.

With `Nc1ncnc2c1ncn2[C@@H]1O[C@H](COP(=O)(O)OP(=O)(O)NP(=O)(O)O)[C@@H](O)[C@H]1O` [AMPPNP] the “DSS chemical cross-linking, nucleotide-induced dimerization, SDS-PAGE” value [2] was “EcNTD dimers were only observed in presence of AMPPNP (Figure S5)”.

With `Nc1ncnc2c1ncn2[C@@H]1O[C@H](COP(=O)(O)OP(=O)(O)O)[C@@H](O)[C@H]1O` [ADP] the “size-exclusion chromatography, nucleotide-induced dimerization” value [1] was “PaNTD binding to ADP displaced monomer-dimer equilibrium as judged by size-exclusion chromatography”.

B1: Pseudomonas aeruginosa MutL N-terminal domain (PaNTD, amino acids 1-339), His6-tagged (domain or fragment, UniProt Q9HUL8 1-339, looked up)
chain: T1 sequence (Q9HUL8 1-339)
notes: MutL of Pseudomonas aeruginosa, N-terminal ATPase domain, residues 1-339 of PaMutL, amplified from genomic DNA; monomeric MW 37.7 kDa; The pET-15b vector should add an N-terminal His6 tag with a thrombin site (surmised, as is cloning through NdeI); no cleavage of the tag is described; also called His6-PaNTD; His-tag PaNTD
With B1 the “dimer share of peak area” value [3] was ~0.2 share of the dimer peak (monomer 0.8) and the “stoichiometry N” value [3] was 2.
